Data taken from patent US7138361B2, “Herbicidal heterocycles” (E. I. du Pont de Nemours and Company, priority 2000, dated 2006).

Assays:
Assay in all cases: Test C preemergence
Format in all cases: in vivo
Sunflower = details: Rate 500 g/ha, visual evaluation after 12 to 14 days
kochia (Kochia scoparia) = details: for Plant response rating (0 to 100), Kochia: Rate 500 g/ha, visual evaluation after 12 to 14 days
Outline: (§1)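 Formulation: non-phytotoxic solvent mix incl. surfactant. Pre: applied right after planting. Post: 1–4-leaf seedlings. Read: visual 0–100, day 12–14, greenhouse.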

[1] = system: morningglory (Ipomoea hederacea); details: for Plant response rating (0 to 100), Morningglory: Rate 500 g/ha, visual evaluation after 12 to 14 days
Outline: as §1

[2] = system: Surinam grass (Brachiaria decumbens); details: for Plant response rating (0 to 100), Surinam grass: Rate 500 g/ha, visual evaluation after 12 to 14 days
Outline: as §1

corn (Zea mays) = details: for Plant response rating (0 to 100), Corn: Rate 500 g/ha, visual evaluation after 12 to 14 days
Outline: as §1

[3] = Rate 125 g/ha, scale 0 to 100, 0 no effect, 100 complete control
[4] = preemergence, Rate 62 g/ha, scale 0 to 100
[5] = preemergence, Rate 250 g/ha, scale 0 to 100, 0 no effect, 100 complete control

| Structure (SMILES) | Plant response rating (0 to 100), Sunflower (Sunflower) | Plant response rating, Kochia (kochia (Kochia scoparia); [3]) | Plant response rating, Kochia (kochia (Kochia scoparia); [4]) | Plant response rating (0 to 100), Kochia (kochia (Kochia scoparia); preemergence) | Plant response rating, Kochia (kochia (Kochia scoparia); [5]) | Plant response rating, Morningglory [1, 4] | Plant response rating, Morningglory [1, 5] | Plant response rating, Surinam grass [2, 3] | Plant response rating, Surinam grass [2, 4] | Plant response rating (0 to 100), Surinam grass ([2]; preemergence) | Plant response rating, Surinam grass [2, 5] | Plant response rating, Corn (corn (Zea mays); [3]) | Plant response rating, Corn (corn (Zea mays); [4]) | Plant response rating (0 to 100), Corn (corn (Zea mays); preemergence) | Plant response rating, Corn (corn (Zea mays); [5]) | Plant response rating, Morningglory [1, 3] | Plant response rating (0 to 100), Morningglory ([1]; preemergence) |
| --- | --- | --- | --- | --- | --- | --- | --- | --- | --- | --- | --- | --- | --- | --- | --- | --- | --- |
| CCOc1cccc(N2CCC(n3ccc(C(C)(C)C)n3)C2=O)c1 (stereo not shown) [Compound 130] | 70 | 100 | 100 | 100 | 100 | 70 | 90 | 100 | 100 | 100 | 100 | 80 | 40 | 100 | 90 | – | – |
| CC(C)(C)c1ccn(C2OCN(c3cccc(OC(F)F)c3)C2=O)n1 (stereo not shown) [Compound 133] | 0 | 100 | 100 | 100 | 100 | 0 | 20 | 100 | 100 | 100 | 100 | – | 100 | 100 | 100 | 0 | 30 |
| CCC(C)c1ccn(C2OCN(c3cccc(OC(F)F)c3)C2=O)n1 (stereo not shown) [Compound 134] | 20 | 100 | 100 | 100 | 100 | 0 | 0 | 100 | 100 | 100 | 100 | 20 | – | 100 | 100 | 0 | 0 |
| CCC(CC)c1ccn(C2CCN(c3ccc(F)c(C(F)(F)F)c3)C2=O)n1 (stereo not shown) [Compound 144] | 70 | 100 | 90 | 100 | 100 | – | 30 | 0 | 0 | 90 | 0 | 50 | 30 | 60 | 50 | 0 | 30 |
| CCC(C)c1ccn(C2CCN(c3ccc(F)c(C(F)(F)F)c3)C2=O)n1 (stereo not shown) [Compound 145] | 50 | 100 | 100 | 100 | 100 | 0 | 100 | 50 | 0 | 100 | 90 | 20 | 0 | 40 | 40 | 100 | – |
